Experimental data from patent publication US20120165223A1 (priority 2006, published 2012).

System: crypt cells of the colon of HFA mice
Assay: DNA chip showing specific responses to human intestinal normal bacterial flora, colistin-treated HFA mice
Conditions: colon crypt cells, 500 μg/Ml in drinking water three weeks, then halted one week
From the text: The colon is collected and the gene expression of crypt cells obtained from the colon is compared with the control group (HFA mice).
In other words, the material or the food is orally administered to HFA mice, which are autopsied along with control HFA mice not having been administered. The crypt cells of the colon are collected to separate RNA. Next, the separated RNA is amplified and Cy3 fluorescence material is labelled on the genes of HFA mice and Cy5 fluorescence material is labelled on the genes of the administered group to react with the gene chip which is a product of the present invention to get the difference of expressions of the 90 genes.
RNA is collected and amplified from the crypt cells of the colon to manufacture a DNA chip, which is reacted with RNA of HFA mice being the control group. The degree of expressing genes and the change of composition of intestinal normal bacterial flora of the colon and the activity of the enzymes produced by the human intestinal bacterial flora such as glucuomidase, glucosidase, nitrate reductase and azoreductase are investigated and used as an index showing the disruption of the human intestinal normal bacterial flora.

## colistin sulfate
  Il18 gene expression HFA-Coli/HFA: 1.094
  Il18 gene expression, HFA-Coli: 531.5
  Ipo4 gene expression HFA-Coli/HFA: 2.566
  Ipo4 gene expression, HFA-Coli: 140.5
  Keap1 gene expression HFA-Coli/HFA: 0.687
  Keap1 gene expression, HFA-Coli: 564.0
  Klf3 gene expression HFA-Coli/HFA: 0.764
  Klf3 gene expression, HFA-Coli: 195.8
  Lnx1 gene expression HFA-Coli/HFA: 0.171
  Lnx1 gene expression, HFA-Coli: 98.25
  Lrp10 gene expression HFA-Coli/HFA: 2.132
  Lrp10 gene expression, HFA-Coli: 1648
  Mcpt4 gene expression HFA-Coli/HFA: 1.505
  Mcpt4 gene expression, HFA-Coli: 181.8
  Mllt1 gene expression HFA-Coli/HFA: 0.781
  Mllt1 gene expression, HFA-Coli: 502.8
  Mpp1 gene expression HFA-Coli/HFA: 0.874
  Mpp1 gene expression, HFA-Coli: 638.0
  Mt-1 gene expression HFA-Coli/HFA: 3.610
  Mt-1 gene expression, HFA-Coli: 2033
  Mtmr7 gene expression HFA-Coli/HFA: 2.084
  Mtmr7 gene expression, HFA-Coli: 173.0
  Mut gene expression HFA-Coli/HFA: 1.238
  Mut gene expression, HFA-Coli: 999.5
  Ncoa6 gene expression HFA-Coli/HFA: 3.070
  Ncoa6 gene expression, HFA-Coli: 374.5
  Npm1 gene expression HFA-Coli/HFA: 1.840
  Npm1 gene expression, HFA-Coli: 350.0
  Parva gene expression HFA-Coli/HFA: 1.330
  Parva gene expression, HFA-Coli: 153.0
  Per1 gene expression HFA-Coli/HFA: 1.227
  Per1 gene expression, HFA-Coli: 803.5
  Plp gene expression HFA-Coli/HFA: 1.232
  Plp gene expression, HFA-Coli: 2108
  Prkrir gene expression HFA-Coli/HFA: 0.644
  Prkrir gene expression, HFA-Coli: 510.0
  Ptgs1 gene expression HFA-Coli/HFA: 2.280
  Ptgs1 gene expression, HFA-Coli: 2454
  Ptgs2 gene expression HFA-Coli/HFA: 1.721
  Ptgs2 gene expression, HFA-Coli: 423.8
  Purb gene expression HFA-Coli/HFA: 2.438
  Purb gene expression, HFA-Coli: 527.8
  Rab6ip1 gene expression HFA-Coli/HFA: 2.725
  Rab6ip1 gene expression, HFA-Coli: 203.0
  Rgs12 gene expression HFA-Coli/HFA: 1.395
  Rgs12 gene expression, HFA-Coli: 152.8
  Rhcg gene expression HFA-Coli/HFA: 1.572
  Rhcg gene expression, HFA-Coli: 286.5
  Rnf12 gene expression HFA-Coli/HFA: 1.234
  Rnf12 gene expression, HFA-Coli: 72.50
  Rpa1 gene expression HFA-Coli/HFA: 1.626
  Rpa1 gene expression, HFA-Coli: 353.8
  Rpl27 gene expression HFA-Coli/HFA: 1.021
  Rpl27 gene expression, HFA-Coli: 1768
  Rwl-pending gene expression HFA-Coli/HFA: 1.623
  Rwl-pending gene expression, HFA-Coli: 490.5
  Serping1 gene expression HFA-Coli/HFA: 1.113
  Serping1 gene expression, HFA-Coli: 153.0
  Sh3glb2 gene expression HFA-Coli/HFA: 1.081
  Sh3glb2 gene expression, HFA-Coli: 578.0
  Siat9 gene expression HFA-Coli/HFA: 1.010
  Siat9 gene expression, HFA-Coli: 1439
  Slc22a1l gene expression HFA-Coli/HFA: 1.054
  Slc22a1l gene expression, HFA-Coli: 1671
  Slc26a1 gene expression HFA-Coli/HFA: 1.302
  Slc26a1 gene expression, HFA-Coli: 203.5
  Srpk2 gene expression HFA-Coli/HFA: 0.480
  Srpk2 gene expression, HFA-Coli: 312.2
  Tacc2 gene expression HFA-Coli/HFA: 2.279
  Tacc2 gene expression, HFA-Coli: 179.5
  Tccr gene expression HFA-Coli/HFA: 0.821
  Tccr gene expression, HFA-Coli: 682.0
  Tcl1 gene expression HFA-Coli/HFA: 1.688
  Tcl1 gene expression, HFA-Coli: 290.2
  Tcp11 gene expression HFA-Coli/HFA: 1.222
  Tcp11 gene expression, HFA-Coli: 536.5
  Thsd1 gene expression HFA-Coli/HFA: 1.373
  Thsd1 gene expression, HFA-Coli: 477.8
  Tiam2 gene expression HFA-Coli/HFA: 7.565
  Tiam2 gene expression, HFA-Coli: 160.8
  Tnfsf13b gene expression HFA-Coli/HFA: 2.153
  Tnfsf13b gene expression, HFA-Coli: 256.8
  Tuba4 gene expression HFA-Coli/HFA: 1.623
  Tuba4 gene expression, HFA-Coli: 799.2
  Ugcg gene expression HFA-Coli/HFA: 0.625
  Ugcg gene expression, HFA-Coli: 1158
  Usp15 gene expression HFA-Coli/HFA: 1.355
  Usp15 gene expression, HFA-Coli: 85.00
  Ybx2 gene expression HFA-Coli/HFA: 1.478
  Ybx2 gene expression, HFA-Coli: 164.8
  Zdhhc3 gene expression HFA-Coli/HFA: 1.710
  Zdhhc3 gene expression, HFA-Coli: 357.8
